Here are results for one compound from patent EP4285905A1, “CABERGOLINE OR A PHARMACEUTICALLY ACCEPTABLE SALT OR SOLVATE THEREOF, FOR USE IN PREVENTION OR DELAY OF POST-PREGNANCY BREAST CANCER IN A FEMALE MAMMAL” (Consejo Superior de Investigaciones Cientificas, priority 2022, dated 2023).

In assay [1] the test system is Brca1/P53-deficient mice. The experiment in a line: Ki-67 immunohistochemistry as a proliferation marker in the mammary epithelium. Format: in vivo. On the procedure: Subsequently, the same groups of animals indicated were generated and samples were collected from the mammary glands at 1, 3, 7, 30 and 60 days post-gestation (in non-lactating multiparous) or post-weaning (in lactating multiparous, with and without treatment with cabergoline) (N = 5 mice per group at each time studied).
Ki67 staining was performed at the Comparative Molecular Pathology Service of the Cancer Molecular and Cellular Biology Institute in Salamanca. Sections of the sample were made at 3 µm thickness. Sections were fished onto slides specially treated for this technique (Leica BOND Plus Slides, #S21.2113.A, Leica). The staining process was carried out using the Roche Discovery ULTRA research instrument. The protocol performed by the apparatus is as follows: deparaffinization of the sample, heating the slide to 69 °C; cell conditioning that consisted in the unmasking of the epitope by incubating the sample in a buffer formed by TRIS EDTA pH8 at a temperature of 100 °C for 32 minutes. Next, the primary antibody (Rabbit Anti-Human Ki-67 Monoclonal Antibody (Clone SP6), #MAD-020310Q, Master Diagnostica) was applied manually at a 1:50 dilution and incubated at 37 °C for 60 minutes. After incubation of the primary antibody, two washes with HRP buffer were performed. […]
To quantify cells positive for Ki-67 or caspase 3, the Leica Application Suite (LAS) V3.7 program was used. […]

Assay [2] deals with Brca1/P53-deficient mice. Put plainly: Indirect estimation of recombinant P53 cells by qPCR of the WT allele (longitudinal cohort). It is filed as in vivo. Conditions: tumour-free mammary glands. How it is done:
In order to obtain a suspension enriched in mouse mammary epithelial cells, from which we can obtain both RNA and proteins and also maintain acceptable viability, the protocol for obtaining mouse mammary organoids was carried out. Once the mammary glands were removed after performing the necropsy of the mouse, they were mechanically disintegrated by cutting with two scalpels. Subsequently, they were incubated in a volume of 10 mL of supplemented medium (DMEM/F12 (50%/50%), 5% fetal bovine serum, 1% penicillin/streptomycin) plus 1.25 mL of collagenase, and 1 mL of trypsin. This enzymatic digestion was carried out for 30 minutes at 37 °C in orbital agitation at 100 revolutions per minute (rpm) (= 1.666 s^-1). […]
DNA was extracted from frozen organoids obtained from mammary glands at 30 and 60 days of involution, and from tumour-free mammary glands of mice that developed breast cancer over time. The quantity and quality of DNA were quantified using a spectrophotometer (Nanodrop). Subsequently, this DNA was used to determine the recombination frequency of the P53 gene in the breasts of the different groups by Quantitative Polymerase Chain Reaction (qPCR). […]
For each sample, qPCR reactions against P53 and Tfrc were performed in parallel and in triplicate. […] The qPCR reactions and the reading of the signal were performed in the Mastercycler epgradient S Realplex2 thermal cycler from Eppendor. […]

For `C=CCN1C[C@H](C(=O)N(CCCN(C)C)C(=O)NCC)C[C@@H]2c3cccc4[nH]cc(c34)C[C@H]21` [cabergoline, 1-[(6-allylergolin-8ß-yl)-carbonyl]-1-[3-(dimethylamino)propyl]-3-ethylurea], the “epithelial proliferation (% of Ki67+ cells)” value in assay [1] (30 days post-weaning) is reported as “profound hypoproliferative state”; in assay [1] (60 days of post-lactational involution) it was “hypoproliferative state”. Moreover, the “WT allele (proportion of WT cells) over time” value in assay [2] is reported as “increase in WT cells was observed over time”.
